In ChEMBL document CHEMBL4177696, “Identification of a diverse synthetic abietane diterpenoid library and insight into the structure-activity relationships for antibacterial activity” (Bioorg Med Chem Lett, 2017):
Converted amounts (≈) assume the structure as drawn.

How the values were obtained:
Type in all cases: functional
[1] = system: Bacillus subtilis; assay: Antibacterial activity against Bacillus subtilis measured after 24 hrs
[2] = system: Pseudomonas fluorescens; assay: Antibacterial activity against Pseudomonas fluorescens measured after 24 hrs
[3] = system: Escherichia coli; assay: Antibacterial activity against Escherichia coli measured after 24 hrs
[4] = system: Staphylococcus aureus; assay: Antibacterial activity against Staphylococcus aureus measured after 24 hrs

Row | MIC [1] | MIC [2] | MIC [3] | MIC [4] | Compound
1 | 100 µg/mL (≈ 347 µM) | 100 µg/mL (≈ 347 µM) | 75 µg/mL (≈ 260 µM) | 100 µg/mL (≈ 347 µM) | COc1c(C(C)C)ccc2c1CC[C@H]1[C@@H](O)CCC[C@]21C
2 | 100 µg/mL (≈ 349 µM) | 100 µg/mL (≈ 349 µM) | 75 µg/mL (≈ 262 µM) | 75 µg/mL (≈ 262 µM) | COc1c(C(C)C)ccc2c1CC[C@H]1C(=O)CCC[C@]21C
3 | 25 µg/mL (≈ 98.3 µM) | 1.6 µg/mL (≈ 6.29 µM) | 0.8 µg/mL (≈ 3.15 µM) | 50 µg/mL (≈ 197 µM) | C[C@]12CC=C3C(=O)OC[C@@H]3[C@@H]1CCc1ccccc12
4 | 100 µg/mL (≈ 256 µM) | 75 µg/mL (≈ 192 µM) | 100 µg/mL (≈ 256 µM) | 100 µg/mL (≈ 256 µM) | COc1cccc2c1CC[C@H]1[C@@H](CO)[C@H](O[Si](C)(C)C(C)(C)C)CC[C@]21C
5 | 25 µg/mL (≈ 72 µM) | 75 µg/mL (≈ 216 µM) | 50 µg/mL (≈ 144 µM) | 50 µg/mL (≈ 144 µM) | COc1c(C(C)C)ccc2c1CC[C@H]1C(=O)CCC[C@]21CO[N+](=O)[O-]
6 | 100 µg/mL (≈ 287 µM) | 100 µg/mL (≈ 287 µM) | 75 µg/mL (≈ 215 µM) | 75 µg/mL (≈ 215 µM) | COC(=O)[C@]1(C)CCC[C@@]2(C)[C@H]1CC=C1C(=O)[C@@](O)(C(C)C)CC[C@@H]12
7 | 50 µg/mL (≈ 152 µM) | 50 µg/mL (≈ 152 µM) | 50 µg/mL (≈ 152 µM) | 25 µg/mL (≈ 75.9 µM) | COC(=O)[C@]1(C)CCC[C@]2(C)c3ccc(C(C)C)c(N)c3CC[C@@H]12
8 | 75 µg/mL (≈ 264 µM) | 100 µg/mL (≈ 352 µM) | 100 µg/mL (≈ 352 µM) | 100 µg/mL (≈ 352 µM) | C=C1CCC[C@]2(C)c3ccc(C(C)C)c(OC)c3CC[C@@H]12
9 | 50 µg/mL (≈ 126 µM) | 25 µg/mL (≈ 63 µM) | 25 µg/mL (≈ 63 µM) | 25 µg/mL (≈ 63 µM) | COc1ccc(COC[C@H]2[C@H](O)CC[C@]3(C)c4cccc(OC)c4CC[C@@H]23)cc1
10 | 75 µg/mL (≈ 214 µM) | 75 µg/mL (≈ 214 µM) | 100 µg/mL (≈ 285 µM) | 75 µg/mL (≈ 214 µM) | COC(=O)[C@]1(C)CCC[C@@]2(C)[C@H]1CC=C1[C@@H]2CC[C@](O)(C(C)C)[C@H]1O
11 | 75 µg/mL (≈ 218 µM) | 75 µg/mL (≈ 218 µM) | 100 µg/mL (≈ 290 µM) | 75 µg/mL (≈ 218 µM) | COC(=O)[C@]1(C)CCC[C@]2(C)c3ccc(C(C)C)c(OC)c3CC[C@@H]12
12 | 100 µg/mL (≈ 292 µM) | 100 µg/mL (≈ 292 µM) | 100 µg/mL (≈ 292 µM) | 100 µg/mL (≈ 292 µM) | COc1c(C(C)C)ccc2c1CC[C@@]1(O)C3=C(CC[C@]21C)C(=O)OC3
13 | 75 µg/mL (≈ 219 µM) | 75 µg/mL (≈ 219 µM) | 50 µg/mL (≈ 146 µM) | 50 µg/mL (≈ 146 µM) | COc1c(C(C)C)ccc2c1CC[C@H]1C3=C(CC[C@]21CO)C(=O)OC3
14 | 100 µg/mL (≈ 333 µM) | 100 µg/mL (≈ 333 µM) | 100 µg/mL (≈ 333 µM) | 100 µg/mL (≈ 333 µM) | C=C1[C@H](O)CC[C@]2(C)c3ccc(C(C)C)c(OC)c3CC[C@@H]12
15 | 100 µg/mL (≈ 352 µM) | 100 µg/mL (≈ 352 µM) | 100 µg/mL (≈ 352 µM) | 100 µg/mL (≈ 352 µM) | COc1cccc2c1CC[C@H]1C3=C(CC[C@]21C)C(=O)OC3
16 | 100 µg/mL (≈ 322 µM) | 100 µg/mL (≈ 322 µM) | 100 µg/mL (≈ 322 µM) | 50 µg/mL (≈ 161 µM) | COc1c(C(C)C)ccc2c1CC[C@H]1c3cocc3CC[C@]21C
17 | 75 µg/mL (≈ 208 µM) | 75 µg/mL (≈ 208 µM) | 100 µg/mL (≈ 277 µM) | 100 µg/mL (≈ 277 µM) | CC(C)(C)[Si](C)(C)O[C@@H]1CC[C@]2(C)c3ccccc3CC[C@H]2[C@H]1CO
18 | 75 µg/mL (≈ 215 µM) | 25 µg/mL (≈ 71.5 µM) | 100 µg/mL (≈ 286 µM) | 100 µg/mL (≈ 286 µM) | COc1c(C(C)C)ccc2c1CC[C@H]1[C@@H](O)CCC[C@]21CO[N+](=O)[O-]
19 | 25 µg/mL (≈ 76.1 µM) | 25 µg/mL (≈ 76.1 µM) | 75 µg/mL (≈ 228 µM) | 50 µg/mL (≈ 152 µM) | COC(=O)C1=C[C@@H]2CCc3c(ccc(C(C)C)c3OC)[C@@]2(C)CC1
20 | 50 µg/mL (≈ 139 µM) | 50 µg/mL (≈ 139 µM) | 25 µg/mL (≈ 69.7 µM) | 50 µg/mL (≈ 139 µM) | COC(=O)[C@]1(C)CCC[C@]2(C)c3ccc(C(C)C)c(OC)c3C(=O)C[C@@H]12
21 | 100 µg/mL (≈ 314 µM) | 50 µg/mL (≈ 157 µM) | 75 µg/mL (≈ 236 µM) | 75 µg/mL (≈ 236 µM) | COc1c(C(C)C)ccc2c1CC[C@H]1[C@@H](CO)[C@H](O)CC[C@]21C
22 | 100 µg/mL (≈ 306 µM) | 100 µg/mL (≈ 306 µM) | 100 µg/mL (≈ 306 µM) | 100 µg/mL (≈ 306 µM) | COc1c(C(C)C)ccc2c1CC[C@H]1C3=C(CC[C@]21C)C(=O)OC3
23 | 100 µg/mL (≈ 292 µM) | 75 µg/mL (≈ 219 µM) | 75 µg/mL (≈ 219 µM) | 100 µg/mL (≈ 292 µM) | C=C1[C@H](O[Si](C)(C)C(C)(C)C)CC[C@]2(C)c3ccccc3CC[C@@H]12
24 | 75 µg/mL (≈ 295 µM) | 75 µg/mL (≈ 295 µM) | 100 µg/mL (≈ 393 µM) | 100 µg/mL (≈ 393 µM) | C[C@]12CCC3=C(COC3=O)[C@@H]1CCc1ccccc12

Row | Compound | MIC [1] | MIC [2] | MIC [3] | MIC [4]
25 | COC(=O)[C@]1(C)CCC[C@]2(C)c3ccc(C(C)C)c(O)c3CC[C@@H]12 | 75 µg/mL (≈ 227 µM) | 25 µg/mL (≈ 75.7 µM) | 50 µg/mL (≈ 151 µM) | 50 µg/mL (≈ 151 µM)
